Reference: paper PMC9718554, “Discovery of a fragment hit compound targeting D-Ala:D-Ala ligase of bacterial peptidoglycan biosynthesis” (Journal of Enzyme Inhibition and Medicinal Chemistry, 2022)
Like-named read-outs stand apart in the source and are kept apart here.

Molecular target: T1, E. coli DdlB enzyme (D-alanine:D-alanine ligase) (Escherichia coli, UniProt P07862)
T1 construct: made in house; host or cells: E. coli
Assay: biochemical
Settings: for remaining activity at 2500 µM: tested concentration 2.5 mM; for remaining activity at 2000 µM: tested concentration 2.0 mM; for remaining activity at 1700 µM: tested concentration 1.7 mM; for remaining activity at 1900 µM: tested concentration 1.9 mM; for remaining activity at 1800 µM: tested concentration 1.8 mM; for remaining activity at 2200 µM: tested concentration 2.2 mM; for remaining activity at 2400 µM: tested concentration 2.4 mM; for remaining activity at 2300 µM: tested concentration 2.3 mM; for remaining activity at 2900 µM: tested concentration 2.9 mM; for remaining activity at 2100 µM: tested concentration 2.1 mM

[1] = residual activity of DdlB, fragment library screening, read-out: DdlB RA
[2] = residual activity, read-out: DdlB RA

`Cc1ccccc1C(=O)NCC(=O)O` [FLD033] was tested, and the remaining activity at 2500 µM [1] was 100%.

Molecule `OB(O)c1ccc(OCc2ccccc2)c(F)c1` [Compound 1222-0119] has a remaining activity at 2000 µM (read-out: DdlB RA) of 98%.

Molecule `NS(=O)(=O)c1ccc(CNC(=O)N2CCOCC2)cc1` [Compound Y030-3729] has a remaining activity at 1700 µM (read-out: DdlB RA) of 104%.

For `CN1CCC2(CC1)CN(C1CCC1)Cc1ccccc1O2` [CM3852-0302], the remaining activity at 1900 µM [2] was 86%.

`CCc1cccc(N)n1` [FLD162] showed a remaining activity at 2500 µM [1] of 100%.

In the case of `Cc1c(S(=O)(=O)NC2CCCCCC2)cnn1C` [Compound Y502-6613], the remaining activity at 1800 µM [2] is reported as 94%.

For `O=C(O)c1cnn2c(-c3ccccc3)ccnc12` [Compound 9, 7-Phenylpyrazolo[1,5-a]pyrimidine-3-carboxylic acid], the remaining activity at 5000 µM (at 5 mM, read-out: DdlB inhibition, RA (Residual Activity)) was 90%.

In the case of `NC(=O)c1ccccc1N` [FLD043], the remaining activity at 2500 µM [1] is reported as 98%.

With `CCn1nccc1[C@H](C)NC(=O)[C@H]1CCCC[C@H]1C(=O)O` [Compound Y503-1571] the remaining activity at 1700 µM (fragment library screening, read-out: DdlB RA) was 93%.

In the case of `OCc1cccc(Oc2ccccc2)c1` [FLD065], the remaining activity at 2500 µM [1] is reported as 100%.

Molecule `CC(=O)NCC1CNCC12CCCCC2` (stereo not drawn) [Compound S855-0002] has a remaining activity at 2200 µM (read-out: DdlB RA) of 85%.

With `O=C(O)Cc1cccnc1` [FLD083] the remaining activity at 2500 µM [1] was 98%.

Work on `COC(=O)Cn1nc(C(F)F)c2c1CCCC2` [Compound Y504-8961] yielded a remaining activity at 2000 µM (read-out: DdlB RA) of 94%.

In the case of `COC(C(=O)NC1CC1)c1ccccc1` (stereo not drawn) [Compound 8010-8989], the remaining activity at 2400 µM (read-out: DdlB RA) is reported as 94%.

In the case of `O=C(O)Cc1nc(-c2cnccn2)n[nH]1` [Compound 8020-1590], the remaining activity at 2400 µM (read-out: DdlB RA) is reported as 102%.

Molecule `Oc1nsnc1N1CCOCC1` [Compound 8009-8691] has a remaining activity at 2700 µM (tested concentration 2.7 mM, read-out: DdlB RA) of 88%.

In the case of `Cn1nnc(-c2ccc(C(=O)O)c(N)c2)n1` [Compound 8019-8673], the remaining activity at 2300 µM [2] is reported as 115%.

Work on `COCc1cn(C2CNC2)nn1` [Compound S727-0003] yielded a remaining activity at 2900 µM [1] of 7.54%.

In the case of `CCOc1ccc(S(N)(=O)=O)cc1C` [Compound Y050-1019], the remaining activity at 2300 µM (read-out: DdlB RA) is reported as 79%.

`CCCC(CCC)n1nc(O)cc1N` [Compound D068-0218] gave a remaining activity at 2500 µM (read-out: DdlB RA) of 100%.

Molecule `CC1SC(c2ccc(Cl)c(Cl)c2)NC1=O` (stereo not drawn) [Compound 8011-7610] has a remaining activity at 1900 µM (read-out: DdlB RA) of 80%.

For `O=C(O)CCCC1C(=O)Nc2ccccc21` (stereo not drawn) [Compound 8020-0144], the remaining activity at 2300 µM (read-out: DdlB RA) was 93%.

`CC1(O)CCC12CCN(C(=O)CC1CC1)CC2` (stereo not drawn) [Compound S971-1224] was tested, and the remaining activity at 2500 µM (read-out: DdlB RA) was 75%.

For `O=C(Nc1ccccc1)Nc1ccc2[nH]c(=O)oc2c1` [Compound G434-0096], the remaining activity at 1900 µM (read-out: DdlB RA) was 75%.

For `Nc1cccc(F)n1` [FLD199], the remaining activity at 2500 µM [1] was 91%.

For `CCS(=O)(=O)N1CCCC1c1ccc(C)cc1` (stereo not drawn) [Compound D399-0123], the remaining activity at 2400 µM (read-out: DdlB RA) was 89%.

In the case of `CC(C)(C)NS(=O)(=O)c1ccccc1` [Compound 0896-4384], the remaining activity at 2800 µM (tested concentration 2.8 mM, read-out: DdlB RA) is reported as 95%.

Molecule `O=C(c1ccco1)N1CCCCC1c1nnc(C2CC2)[nH]1` (stereo not drawn) [Compound M754-1192] has a remaining activity at 1700 µM [2] of 90%.

`CCN(CC)CCNc1c(-c2ccccc2)c(=O)c1=O` [Compound E470-0370] showed a remaining activity at 1800 µM (read-out: DdlB RA) of 94%.

`CCc1cc(C2CCCN2S(=O)(=O)CC)on1` (stereo not drawn) [Compound J005-1008] gave a remaining activity at 1900 µM (read-out: DdlB RA) of 98%.

`CCOc1ccc(O)cc1` [FLD099] was tested, and the remaining activity at 2500 µM [1] was 100%.

`COCn1nc(C)c(N)c1C` [Compound Y504-8876] gave a remaining activity at 3900 µM (residual activity of DdlB, fragment library screening, tested concentration 3.9 mM, read-out: DdlB RA) of 92%.

`CCn1cc(S(=O)(=O)NC2CCCC2)c2cccnc21` [Compound P633-0557F] was tested, and the remaining activity at 2000 µM [2] was 89%.

With `CC(C(=O)NCc1cc(F)cc(F)c1)C1CCOCC1` (stereo not drawn) [Compound S424-0231] the remaining activity at 2100 µM [2] was 92%.

`Cn1nc(CCC(=O)N2CCNC(=O)C2)c2c1CCOC2` [SD48-0069] showed a remaining activity at 2100 µM [2] of 99%.

With `Cc1ncc(CO)c(C2CCCN(C(=O)C(C)C)C2)n1` (stereo not drawn) [SA04-1071] the remaining activity at 2200 µM [2] was 95%.

For `O=C(O)c1nc2ccccc2nc1O` [Compound 8016-8257], the remaining activity at 2600 µM (tested concentration 2.6 mM, read-out: DdlB RA) was 97%.

For `NS(=O)(=O)c1ccc2c(c1)OCCO2` [Compound 1313-0805], the remaining activity at 2300 µM (read-out: DdlB RA) was 88%.

`CC#CC(=O)NCc1cc(F)ccc1F` [Compound T001-0919] gave a remaining activity at 2900 µM (read-out: DdlB RA) of 89%.
